Data taken from patent US5618726A, “Biodegradable azo dyes” (priority 1994, dated 1997).

Legend:
[1] = system: S. chromofuscus A11; details: for Decolorization of growth medium by S. chromofuscus A11: both 50 and 100 ppm; for Degradation (%) after Streptomyces cultivation, strain A11: streptomyces chromofuscus a11 culture, 336 h
Experimental: (§1) Microbiol., 1984, 130:2905-2913.
(§2) Replicate sterile controls also were run in each experiment.
The Streptomyces were grown on the same media and under the same conditions as previously described. […] Thus, the spectrophotometric assays for substrates 1-12 were carried out at their specific isobastic points. Degradation was calculated as percent of substrates removed from culture broth, considering the evaporation factor (around 10%).

[2] = target: T1, horseradish peroxidase type II (Armoracia rusticana, UniProt P00433); test: Oxidation of azo dyes by horseradish peroxidase preparation; type: biochemical; details: pH 8, 37° C., H2O2
T1 sequence (P00433 31-338): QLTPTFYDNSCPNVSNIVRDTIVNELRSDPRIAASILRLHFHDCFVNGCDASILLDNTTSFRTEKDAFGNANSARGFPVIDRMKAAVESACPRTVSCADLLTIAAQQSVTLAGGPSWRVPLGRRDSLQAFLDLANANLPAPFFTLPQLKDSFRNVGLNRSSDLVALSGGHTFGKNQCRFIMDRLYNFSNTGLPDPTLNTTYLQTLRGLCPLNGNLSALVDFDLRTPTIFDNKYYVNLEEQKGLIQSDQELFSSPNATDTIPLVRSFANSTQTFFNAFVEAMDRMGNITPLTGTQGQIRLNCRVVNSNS
Experimental: The reaction was started with the addition of 100 μl of 50 mM H2 O2 and was followed for 1 min at 37° C. Controls were run with no addition of H2 O2 or with the addition of the hemeperoxidase inhibitor KCN (final concentration 25 μM).

[3] = system: S. chromofuscus A11 extracellular peroxidase; test: Oxidation of azo dyes by S. chromofuscus A11 crude enzyme preparation; type: biochemical, Streptomyces chromofuscus A11; details: pH 8, 37° C., H2O2
Experimental: Environ. Microbiol., 1988, 54:3057-3063. […] Microbiol. Biotechnol., 34:661-667. Incubation took place at 37° C. with shaking at 250 rpm. The culture supernatant was collected after 48 h incubation, and vacuum-filtered through Whatman no. 1 filter paper. The filtrate was concentrated approximately 40- to 50-fold by ultrafiltration through an Amicon ultrafiltration stirred cell (series no. 8000, Amicon Corp.) with a disc PM-10 filter (diameter, 76 mm). Protein in the concentrated filtrate was then precipitated from solution with 80% ammonium sulfate. The precipitate was collected by centrifugation (15 min, 10,000 rpm). The pellet was resuspended in 10 ml of 20 mM HEPES buffer (pH 8) and dialyzed overnight against the same buffer at 4° C. These preparations were then stored in 1-ml aliquots at -20° C. until used. Before using, the preparation was filtered through a NAP-25 Sephadex G-25 disposable column (Pharmacia) in order to separate a yellowish protein fraction from a pink low-molecular-weight fraction. The yellowish fraction was used as the source of enzyme. […] The reaction was started with the addition of 100 μl of 50 mM H2 O2 and was followed for 1 min at 37° C. Controls were run with no addition of H2 O2 or with the addition of the hemeperoxidase inhibitor KCN (final concentration 25 μM).

[4] = system: Phanerochaete chrysosporium; test: Substrate removal / decolorization by P. chrysosporium culture; type: cell-based; details: for % Decolorization, P. chrysosporium: 14 days
Experimental: Environ. Microbiol., 1981, 42:290-296), with the addition of 75 mg adenine (6-aminopurine) and 27 mg L-phenylalanine-per-liter. This addition accelerated the growth of the fungus without inhibiting ligninase activity. […] […] Cultures were incubated at 37° C. for 7 to 15 days with shaking (250 rpm). Solid agar media were also employed.

[5] = system: S. rochei A10; type: cell-based; details: streptomyces rochei a10 culture, 336 h
Source text: as §1, §2

[6] = system: S. diastaticus A12; type: cell-based; details: streptomyces diastaticus a12 culture, 336 h
Source text: as §1, §2

[7] = system: S. diastaticus A13; type: cell-based; details: streptomyces diastaticus a13 culture, 336 h
Source text: as §1, §2

[8] = system: ligninase; test: Oxidation of dyes by P. chrysosporium ligninase (crude preparation); type: biochemical, Phanerochaete chrysosporium; details: crude enzyme, conditions specific for ligninase
Experimental: The peroxidase assay was carried out using a composition having a final volume of 1.0 ml. The reaction mixture contained 250 μl of 100 mM HEPES buffer (pH 8), 500 μl of 10 mM 2,4-dichlorophenol, 100 μl of 1 mM aminoantipyrine, 50 μl enzyme preparation and 100 μl 50 mM H2 O2. The reaction was initiated by the addition of hydrogen peroxide at 37° C. One unit of peroxidase activity was expressed as the amount of enzyme required for an increase of one absorbance-unit-per-minute at 510 nm. Assays of manganese peroxidase and of ligninase from P. chrysosporium were carried out as previously described by Paszczynski et al in "Manganese peroxidase of Phanerochaete chrysosporium: Purification," Methods Enzymol. 161:264-270, incorporated herein by reference. […] Biophys., 1986, 44:750-765. Preparation and assay of ligninase and manganese peroxidase from these P. chrysosporium cultures were carried out as previously reported by Paszczynski, et al., Methods Enzymol., 1988, 161:264-270. […] Purification," Methods Enzymol. 161:264-270. […] Cycle time was 30 seconds with the last measure after 15 minutes. […] The reaction conditions were the same as for acid yellow 9. No decolorization of the synthesized dyes by ligninase was detected.

[9] = system: Mn(II)-peroxidase; test: Oxidation of dyes by P. chrysosporium Mn(II)-peroxidase; type: biochemical, Phanerochaete chrysosporium; details: crude enzyme, conditions specific for Mn(II)-peroxidase
Experimental: The peroxidase assay was carried out using a composition having a final volume of 1.0 ml. The reaction mixture contained 250 μl of 100 mM HEPES buffer (pH 8), 500 μl of 10 mM 2,4-dichlorophenol, 100 μl of 1 mM aminoantipyrine, 50 μl enzyme preparation and 100 μl 50 mM H2 O2. The reaction was initiated by the addition of hydrogen peroxide at 37° C. One unit of peroxidase activity was expressed as the amount of enzyme required for an increase of one absorbance-unit-per-minute at 510 nm. Assays of manganese peroxidase and of ligninase from P. chrysosporium were carried out as previously described by Paszczynski et al in "Manganese peroxidase of Phanerochaete chrysosporium: Purification," Methods Enzymol. 161:264-270, incorporated herein by reference. […] Biophys., 1986, 44:750-765. Preparation and assay of ligninase and manganese peroxidase from these P. chrysosporium cultures were carried out as previously reported by Paszczynski, et al., Methods Enzymol., 1988, 161:264-270. […] Purification," Methods Enzymol. 161:264-270. […] Cycle time was 10 seconds, with the last measure after three minutes of incubation.

[10] = system: Streptomyces chromofuscus; test: Mineralization of 14C-labeled dyes by shaken cultures; type: cell-based
Experimental: (§3) Agitated cultures containing 100,000 to 150,000 dpm of azo dye at a concentration of 200 mg/liter for P. chrysosporium and 50 mg/liter for S. chromofuscus were incubated at 37° C. for 20 days with shaking at 200 rpm. For each mineralization experiment six replicates-per-culture were run for P. chrysosporium and three replicates-per-culture for S. chromofuscus. Each culture flask contained a CO2 trap consisting of a small glass cup connected to the bottom of the rubber stopper. The cup contained 1 ml of 1N NaOH. Samples were taken every 2 days, and after each sampling cultures were flushed with 100% oxygen for 30 s. At the sampling time, the stopper was removed and the NaOH containing trapped CO2 was transferred to a 20-ml scintillation vial, and the cup was then rinsed twice with 1 ml of water. Two ml of rinse water were also transferred to the vial. Finally, 10 ml of Ecolite scintillation cocktail (ICN Biochemicals Inc., Irvine, Calif.) were added to each vial. Vials, after mixing, were stored in the dark for 24 h. The cpm of trapped radioactivity was then determined in a Packard Tri-Carb liquid scintillation analyzer, Model 1500, using the ^14 C quench standards and SIS numbers.
(§4) The removal of radioactivity from the media was determined by measuring the amount of ^14 C label in 0.1 ml of the medium at time 0 and 21 days for each culture. Uninoculated cultures were used as evaporation controls. […] At the end of each mineralization experiment, culture broths were acidified with 5 ml of 1M H3 PO4, fresh 1N NaOH was added to the trap, and the cultures were shaken overnight. No additional releases of ^14 CO2 were observed. The radioactivity assimilated by the cells was measured by solubilizing biomass harvested from each 21-day-old culture in an equal volume of hyamine hydroxide solution. Before solubilization, cells were washed three times with 50 ml of distilled water to remove adsorbed dyes. Ecolite 10 ml was added to the mixture, which was vortexed vigorously. To increase counting efficiency, the solution of biomass-hyamine-scintillation cocktail was further diluted 10 to 20 times with fresh Ecolite before counting.

[11] = system: P. chrysosporium; test: as above; type: cell-based, Phanerochaete chrysosporium; details: 21 days' growth, 200 mg/liter
Experimental: as §3
Either a charcoal-containing polyurethane sponge (Bio-Rad Laboratories, Richmond, Calif.) or 2-methoxyethanol was used to trap volatile organic compounds released during mineralization experiments. The sponge (1 cm^3) replaced the 1N NaOH solution in the small glass cap attached to the rubber stopper; other conditions were as before for the ^14 CO2 experiments. For scintillation counting, the charcoal sponges were dissolved in 1 ml of hyamine hydroxide contained in scintillation vials (1M solution in methanol; NEN Research Products, Boston, Mass.) held at 55° C. for 2 h. Ten ml of Ecolite scintillation cocktail were then added and the cpm was measured.
In the second procedure, cultures with CO2 traps were flushed with oxygen for 10 min, and the organic volatiles present were trapped in 10 ml of 2-methoxyethanol mixed with 10 ml Ecolite.
as §4

[12] = beginning concentration 100 ppm
[13] = beginning concentration 150 ppm
[14] = beginning concentration 200 ppm
[15] = beginning concentration 300 ppm

| SMILES | Degradation (%) after Streptomyces cultivation, strain A11 [1] | Oxidation rate of azo dyes, Horseradish peroxidase [2] | Oxidation rate of azo dyes, S. chromofuscus peroxidase [3] | % Decolorization, P. chrysosporium ([4]; initial concn 150 ppm) | % Decolorization, P. chrysosporium ([4]; initial concn 300 ppm) | Degradation (%) after Streptomyces cultivation, strain A10 [5] | Oxidation rate of azo dyes, P. chrysosporium Ligninase [8] | Oxidation rate of azo dyes, P. chrysosporium Mn-peroxidase [9] | Decolorization of growth medium by S. chromofuscus A11 [1] | Concentration of substrate after ten days cultivation with P. chrysosporium [4, 12] | Concentration of substrate after ten days cultivation with P. chrysosporium [4, 13] | Concentration of substrate after ten days cultivation with P. chrysosporium [4, 14] | Concentration of substrate after ten days cultivation with P. chrysosporium [4, 15] | also measured |
| --- | --- | --- | --- | --- | --- | --- | --- | --- | --- | --- | --- | --- | --- | --- |
| COc1cc(N=Nc2ccc(N=N[14c]3[14cH][14cH][14c](S(=O)(=O)O)[14cH][14cH]3)cc2S(=O)(=O)O)ccc1O [compound 35] | – | – | – | – | – | – | – | – | – | – | – | – | – | Mineralization by the streptomycetes ([10]; 21-day incubation): mineralized |
| O=S(=O)(O)c1ccc(N=Nc2ccc(O)c3ccccc23)cc1 [Azo dye 32, 4-(4-hydroxy-naphthylazo)-benzenesulfonic acid] | – | – | – | – | – | – | – | – | – | – | – | – | – | Percentage of radioactivity recovered in CO2, P. chrysosporium [11]: 19.7%; Percentage of radioactivity recovered in biomass (cells), P. chrysosporium [11]: 4.0%; Percentage of radioactivity removed from the medium, P. chrysosporium [11]: 29.6%; Percentage of radioactivity recovered in CO2, Streptomyces chromofuscus ([10]; 21 days' growth, 50 mg/liter): 1.1%; Percentage of radioactivity recovered in biomass (cells), Streptomyces chromofuscus ([10]; 21 days' growth, 50 mg/liter): 7.0%; Percentage of radioactivity removed from the medium, Streptomyces chromofuscus ([10]; 21 days' growth, 50 mg/liter): 22.0% |
| O=S(=O)(O)c1ccc(N=Nc2ccc(O)c3ccccc23)cc1 [compound 32] | – | 3.91 μmoles per minute per ml | 2.62 μmoles per minute per ml | – | – | – | 0.23 μmoles per minute per ml | 4.62 μmoles per minute per ml | significantly decolorized | – | – | – | – | – |

Continued, in another order:

| Degradation (%) after Streptomyces cultivation, strain A11 [1] | Oxidation rate of azo dyes, Horseradish peroxidase [2] | Oxidation rate of azo dyes, S. chromofuscus peroxidase [3] | % Decolorization, P. chrysosporium ([4]; initial concn 150 ppm) | % Decolorization, P. chrysosporium ([4]; initial concn 300 ppm) | Degradation (%) after Streptomyces cultivation, strain A10 [5] | Oxidation rate of azo dyes, P. chrysosporium Ligninase [8] | Oxidation rate of azo dyes, P. chrysosporium Mn-peroxidase [9] | SMILES | Decolorization of growth medium by S. chromofuscus A11 [1] | Concentration of substrate after ten days cultivation with P. chrysosporium [4, 12] | Concentration of substrate after ten days cultivation with P. chrysosporium [4, 13] | Concentration of substrate after ten days cultivation with P. chrysosporium [4, 14] | Concentration of substrate after ten days cultivation with P. chrysosporium [4, 15] | also measured |
| --- | --- | --- | --- | --- | --- | --- | --- | --- | --- | --- | --- | --- | --- | --- |
| 83% | 27.04 μmoles per minute per ml | 15.19 μmoles per minute per ml | 93% | 92% | 79% | 0.22 μmoles per minute per ml | 14.33 μmoles per minute per ml | COc1cc(N=Nc2ccc(S(=O)(=O)O)cc2)cc(OC)c1O [compound 4] | significantly decolorized | 1.637 ppm | 3.763 ppm | 4.218 ppm | 16.323 ppm | Degradation (%) after Streptomyces cultivation, strain A12 [6]: 39%; Degradation (%) after Streptomyces cultivation, strain A13 [7]: 8% |
| 9% | 0.15 μmoles per minute per ml | 0.33 μmoles per minute per ml | 70% | 34% | 4% | 1.28 μmoles per minute per ml | 1.06 μmoles per minute per ml | COc1cc(C)cc(N=Nc2ccc(S(=O)(=O)O)cc2)c1O [compound 11] | – | 6.795 ppm | 14.416 ppm | 30.075 ppm | 21.765 ppm | – |
